From paper PMC8620908, “Design, Synthesis, In Vitro Anticancer Evaluation and Molecular Modelling Studies of 3,4,5-Trimethoxyphenyl-Based Derivatives as Dual EGFR/HDAC Hybrid Inhibitors” (Pharmaceuticals, 2021)
Read-outs that look alike come from different tables or passages of the source.

How the values were obtained:
[1] = test system: A549; assay: Antiproliferative MTT assay, A549; conditions: Homo sapiens, A549, read-out: Antiproliferative Activity IC50 ± SEM, A549
[2] = test system: MCF-7; assay: Antiproliferative MTT assay, MCF-7; conditions: Homo sapiens, MCF7, read-out: Antiproliferative Activity IC50 ± SEM, MCF-7
[3] = test system: HepG2; assay: Antiproliferative MTT assay, HepG2; conditions: Homo sapiens, HepG2, read-out: Antiproliferative Activity IC50 ± SEM, HepG2
[4] = test system: HCT116; assay: Antiproliferative MTT assay, HCT116; conditions: Homo sapiens, HCT-116, read-out: Antiproliferative Activity IC50 ± SEM, HCT116
[5] = molecular target: EGFR (Homo sapiens, UniProt P00533); assay: EGFR-TK inhibition, cell-free assay; format: biochemical
EGFR, sequence (P00533 25-1210): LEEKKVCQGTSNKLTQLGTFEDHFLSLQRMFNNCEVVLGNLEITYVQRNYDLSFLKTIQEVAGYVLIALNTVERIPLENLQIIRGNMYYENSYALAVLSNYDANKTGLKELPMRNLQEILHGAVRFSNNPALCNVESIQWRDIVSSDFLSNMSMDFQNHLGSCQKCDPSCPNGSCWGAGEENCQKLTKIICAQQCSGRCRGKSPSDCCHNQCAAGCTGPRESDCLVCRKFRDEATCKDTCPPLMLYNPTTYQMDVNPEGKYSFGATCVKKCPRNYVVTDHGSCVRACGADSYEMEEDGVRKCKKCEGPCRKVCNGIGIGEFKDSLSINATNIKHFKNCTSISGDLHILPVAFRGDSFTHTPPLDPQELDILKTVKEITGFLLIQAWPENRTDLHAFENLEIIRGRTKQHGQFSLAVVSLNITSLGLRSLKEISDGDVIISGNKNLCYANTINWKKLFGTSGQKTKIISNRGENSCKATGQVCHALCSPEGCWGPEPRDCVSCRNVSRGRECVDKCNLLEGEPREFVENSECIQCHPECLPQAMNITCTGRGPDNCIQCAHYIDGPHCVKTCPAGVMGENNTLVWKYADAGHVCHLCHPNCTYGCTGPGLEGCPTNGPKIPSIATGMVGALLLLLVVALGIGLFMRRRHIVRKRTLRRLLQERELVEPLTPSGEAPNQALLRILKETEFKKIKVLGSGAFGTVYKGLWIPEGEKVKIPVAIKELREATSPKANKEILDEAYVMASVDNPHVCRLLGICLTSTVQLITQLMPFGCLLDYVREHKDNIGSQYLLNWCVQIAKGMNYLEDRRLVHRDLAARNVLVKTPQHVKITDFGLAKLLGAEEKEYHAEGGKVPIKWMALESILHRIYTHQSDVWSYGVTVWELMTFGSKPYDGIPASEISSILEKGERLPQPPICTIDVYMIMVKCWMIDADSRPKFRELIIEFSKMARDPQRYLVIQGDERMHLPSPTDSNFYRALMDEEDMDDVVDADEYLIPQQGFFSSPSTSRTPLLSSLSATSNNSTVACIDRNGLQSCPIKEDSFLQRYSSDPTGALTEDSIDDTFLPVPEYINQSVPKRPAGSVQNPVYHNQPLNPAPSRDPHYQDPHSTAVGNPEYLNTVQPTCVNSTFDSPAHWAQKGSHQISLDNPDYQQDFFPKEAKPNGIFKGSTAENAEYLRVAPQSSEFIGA

[6] = molecular target: HDAC1 (Homo sapiens, UniProt Q13547); assay: In vitro HDAC inhibition assay, HDAC1
HDAC1, sequence (Q13547 whole entry): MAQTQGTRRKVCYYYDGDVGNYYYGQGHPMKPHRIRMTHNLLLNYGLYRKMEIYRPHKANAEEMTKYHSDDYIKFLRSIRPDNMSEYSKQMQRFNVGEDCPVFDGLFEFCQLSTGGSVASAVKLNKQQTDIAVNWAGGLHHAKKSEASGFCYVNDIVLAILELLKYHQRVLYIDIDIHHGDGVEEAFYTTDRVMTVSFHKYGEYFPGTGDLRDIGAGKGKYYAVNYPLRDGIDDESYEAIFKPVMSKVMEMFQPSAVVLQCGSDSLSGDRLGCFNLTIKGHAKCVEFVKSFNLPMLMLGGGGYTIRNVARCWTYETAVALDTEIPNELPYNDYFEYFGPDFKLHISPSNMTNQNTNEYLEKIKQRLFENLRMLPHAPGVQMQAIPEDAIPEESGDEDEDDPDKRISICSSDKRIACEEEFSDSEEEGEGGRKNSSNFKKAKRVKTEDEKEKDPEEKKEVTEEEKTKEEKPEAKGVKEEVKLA

[7] = molecular target: HDAC2 (Homo sapiens, UniProt Q92769); assay: In vitro HDAC inhibition assay, HDAC2
HDAC2, sequence (Q92769 whole entry): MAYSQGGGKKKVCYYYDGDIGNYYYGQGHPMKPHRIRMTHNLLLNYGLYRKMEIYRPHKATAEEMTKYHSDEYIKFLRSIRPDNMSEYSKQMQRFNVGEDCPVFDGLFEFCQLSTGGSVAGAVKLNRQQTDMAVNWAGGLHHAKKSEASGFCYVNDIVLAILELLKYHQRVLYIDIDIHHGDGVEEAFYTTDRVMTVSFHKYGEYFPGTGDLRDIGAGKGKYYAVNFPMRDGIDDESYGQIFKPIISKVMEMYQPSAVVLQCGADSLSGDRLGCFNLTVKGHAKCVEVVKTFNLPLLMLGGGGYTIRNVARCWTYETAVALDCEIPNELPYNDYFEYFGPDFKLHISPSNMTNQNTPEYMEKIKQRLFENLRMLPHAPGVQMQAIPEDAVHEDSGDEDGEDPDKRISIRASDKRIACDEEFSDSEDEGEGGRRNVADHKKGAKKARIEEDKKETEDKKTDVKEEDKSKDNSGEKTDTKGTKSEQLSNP

[8] = molecular target: HDAC4 (Homo sapiens, UniProt P56524); assay: In vitro HDAC inhibition assay, HDAC4
HDAC4, sequence (P56524 whole entry): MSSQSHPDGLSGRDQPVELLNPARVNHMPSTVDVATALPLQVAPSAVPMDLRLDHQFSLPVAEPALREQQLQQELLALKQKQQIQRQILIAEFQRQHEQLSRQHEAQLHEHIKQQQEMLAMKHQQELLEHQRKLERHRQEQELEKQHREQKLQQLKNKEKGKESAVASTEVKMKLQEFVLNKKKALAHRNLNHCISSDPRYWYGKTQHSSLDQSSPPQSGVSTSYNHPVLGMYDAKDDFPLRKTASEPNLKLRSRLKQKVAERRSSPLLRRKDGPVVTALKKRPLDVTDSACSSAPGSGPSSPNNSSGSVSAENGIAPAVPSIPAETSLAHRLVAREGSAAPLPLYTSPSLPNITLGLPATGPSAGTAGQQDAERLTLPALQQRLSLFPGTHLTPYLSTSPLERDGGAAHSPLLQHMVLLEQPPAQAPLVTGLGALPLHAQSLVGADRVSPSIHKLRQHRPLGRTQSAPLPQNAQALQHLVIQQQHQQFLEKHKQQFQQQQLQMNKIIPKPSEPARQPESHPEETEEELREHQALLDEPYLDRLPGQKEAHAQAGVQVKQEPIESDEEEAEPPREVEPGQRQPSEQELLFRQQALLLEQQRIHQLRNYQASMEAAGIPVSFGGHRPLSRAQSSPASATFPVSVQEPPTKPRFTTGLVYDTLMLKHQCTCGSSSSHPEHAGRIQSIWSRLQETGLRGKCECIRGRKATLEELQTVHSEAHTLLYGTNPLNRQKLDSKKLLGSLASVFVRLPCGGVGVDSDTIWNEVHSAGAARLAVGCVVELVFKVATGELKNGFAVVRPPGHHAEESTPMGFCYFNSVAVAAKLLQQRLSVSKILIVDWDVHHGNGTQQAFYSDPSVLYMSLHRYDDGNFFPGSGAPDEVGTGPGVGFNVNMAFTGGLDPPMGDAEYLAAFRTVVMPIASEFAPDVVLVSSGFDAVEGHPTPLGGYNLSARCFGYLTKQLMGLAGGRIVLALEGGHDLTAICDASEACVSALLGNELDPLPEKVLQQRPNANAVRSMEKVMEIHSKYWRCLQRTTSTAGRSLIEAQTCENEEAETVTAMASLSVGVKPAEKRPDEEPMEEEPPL

[9] = molecular target: T1, HDAC6 (Homo sapiens, UniProt Q9UBN7); assay: In vitro HDAC inhibition assay, HDAC6
T1 sequence (Q9UBN7 1-1215): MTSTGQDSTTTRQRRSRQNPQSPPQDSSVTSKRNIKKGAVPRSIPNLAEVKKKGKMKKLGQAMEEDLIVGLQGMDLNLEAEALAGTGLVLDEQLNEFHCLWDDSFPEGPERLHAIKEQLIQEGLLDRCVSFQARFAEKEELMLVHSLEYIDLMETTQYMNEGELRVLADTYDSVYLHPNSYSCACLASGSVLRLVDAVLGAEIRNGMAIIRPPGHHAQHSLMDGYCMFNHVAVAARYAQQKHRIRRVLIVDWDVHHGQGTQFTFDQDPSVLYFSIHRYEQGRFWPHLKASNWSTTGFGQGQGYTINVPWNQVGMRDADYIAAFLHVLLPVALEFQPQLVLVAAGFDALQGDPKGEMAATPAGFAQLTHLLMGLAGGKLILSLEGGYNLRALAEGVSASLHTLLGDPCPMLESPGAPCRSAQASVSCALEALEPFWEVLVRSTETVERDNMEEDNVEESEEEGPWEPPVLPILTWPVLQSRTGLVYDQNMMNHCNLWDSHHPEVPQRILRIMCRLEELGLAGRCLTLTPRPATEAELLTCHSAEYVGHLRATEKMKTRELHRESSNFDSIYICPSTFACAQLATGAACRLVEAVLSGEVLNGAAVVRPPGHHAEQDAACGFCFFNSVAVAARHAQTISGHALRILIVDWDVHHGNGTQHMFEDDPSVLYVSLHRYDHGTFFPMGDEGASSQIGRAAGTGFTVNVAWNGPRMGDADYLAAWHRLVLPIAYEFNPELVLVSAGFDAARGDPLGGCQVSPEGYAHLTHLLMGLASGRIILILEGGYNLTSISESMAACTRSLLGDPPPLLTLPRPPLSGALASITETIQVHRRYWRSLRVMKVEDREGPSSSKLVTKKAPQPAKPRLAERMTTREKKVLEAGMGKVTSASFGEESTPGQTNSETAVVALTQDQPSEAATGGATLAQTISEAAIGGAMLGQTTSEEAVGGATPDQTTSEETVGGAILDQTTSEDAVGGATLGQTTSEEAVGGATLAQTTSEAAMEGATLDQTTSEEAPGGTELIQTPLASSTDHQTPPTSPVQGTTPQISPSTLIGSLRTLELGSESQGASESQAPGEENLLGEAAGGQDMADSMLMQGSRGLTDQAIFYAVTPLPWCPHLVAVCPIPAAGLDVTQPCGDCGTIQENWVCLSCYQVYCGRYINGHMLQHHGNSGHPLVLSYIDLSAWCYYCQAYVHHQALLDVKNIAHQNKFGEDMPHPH

[10] = molecular target: T2, HDAC8 (Homo sapiens, UniProt Q9BY41); assay: In vitro HDAC inhibition assay, HDAC8
T2 sequence (Q9BY41 1-377): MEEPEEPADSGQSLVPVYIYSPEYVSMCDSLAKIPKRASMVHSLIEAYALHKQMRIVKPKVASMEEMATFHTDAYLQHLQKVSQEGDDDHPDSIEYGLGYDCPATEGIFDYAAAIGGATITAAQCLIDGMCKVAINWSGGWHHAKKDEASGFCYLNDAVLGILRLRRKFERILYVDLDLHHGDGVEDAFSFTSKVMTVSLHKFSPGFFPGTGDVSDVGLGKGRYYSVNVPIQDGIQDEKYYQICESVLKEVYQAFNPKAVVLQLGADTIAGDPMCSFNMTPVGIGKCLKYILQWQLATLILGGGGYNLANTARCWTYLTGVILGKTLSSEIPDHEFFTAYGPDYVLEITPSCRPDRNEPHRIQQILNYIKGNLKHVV

[11] = test system: Caspase-3; assay: Caspase-3 level assay in HepG2 cancer cell line; format: cell-based, human
[12] = test system: Caspase-8; assay: Caspase-8 level assay in HepG2 cancer cell line; format: cell-based, human; conditions: HepG2 cancer cell line
[13] = test system: Bax; assay: Bax level assay in HepG2 cancer cell line; format: cell-based; conditions: HepG2 cancer cell line

SMILES | melting point | IC50 [1] | IC50 [2] | IC50 [3] | IC50 [4] | IC50 [5] | IC50 [6] | IC50 [7] | IC50 [8] | IC50 [9] | IC50 [10] | Caspase-3 Conc [11] | Caspase-3 Conc ([11]; listed as staurosporine) | Caspase-8 Conc [12] | Caspase-8 Conc ([12]; listed as staurosporine) | Bax Conc [13] | Bax Conc ([13]; listed as staurosporine)
COc1cc(-c2cc(-c3ccc(OCCCCC(=O)O)cc3)[nH]c(=O)c2C#N)cc(OC)c1OC [3a, 5-(4-(5-Cyano-6-Oxo-4-(3,4,5-Trimethoxyphenyl)-1,6-Dihydropyridin-2-yl)Phenoxy)Pentanoic Acid] | 224 to 228 °C | 31 ± 1.67 µM | 46.4 ± 2.54 µM | 65.8 ± 3.55 µM | 23.5 ± 1.27 µM | – | – | – | – | – | – | – | – | – | – | – | –
COc1cc(-c2cc(-c3ccc(OCCCCCC(=O)O)cc3)[nH]c(=O)c2C#N)cc(OC)c1OC [3b, 6-(4-(5-Cyano-6-Oxo-4-(3,4,5-Trimethoxyphenyl)-1,6-Dihydropyridin-2-yl)Phenoxy) Hexanoic Acid] | – | 15.3 ± 0.82 µM | 12.2 ± 0.65 µM | 16.2 ± 0.87 µM | 15.7 ± 0.85 µM | – | – | – | – | – | – | – | – | – | – | – | –
COc1cc(-c2cc(-c3ccc(OCCCCCCC(=O)O)cc3)[nH]c(=O)c2C#N)cc(OC)c1OC [3c, 7-(4-(5-Cyano-6-Oxo-4-(3,4,5-Trimethoxyphenyl)-1,6-Dihydropyridin-2-yl)Phenoxy) Heptanoic Acid] | 168 to 170 °C | 21.3 ± 1.15 µM | 23.7 ± 1.28 µM | 21.1 ± 1.14 µM | 13.9 ± 0.75 µM | – | – | – | – | – | – | – | – | – | – | – | –
COc1cc(-c2cc(-c3ccc(OCCCCC(=O)NO)cc3)[nH]c(=O)c2C#N)cc(OC)c1OC [5a, 5-(4-(5-Cyano-6-Oxo-4-(3,4,5-Trimethoxyphenyl)-1,6-Dihydropyridin-2-yl)Phenoxy)-N-Hydroxypentanamide] | 232 to 238 °C | 2.3 ± 0.12 µM | 4.89 ± 0.26 µM | 3.46 ± 0.19 µM | 4.67 ± 0.25 µM | 0.214 ± 0.004 µM | 0.051 µM | 0.256 µM | 17.5 µM | 0.222 µM | 19.6 µM | – | – | – | – | – | –
COc1cc(-c2cc(-c3ccc(OCCCCCC(=O)NO)cc3)[nH]c(=O)c2C#N)cc(OC)c1OC [5b, 6-(4-(5-Cyano-6-Oxo-4-(3,4,5-Trimethoxyphenyl)-1,6-Dihydropyridin-2-yl)Phenoxy)-N-Hydroxyhexanamide] | 198 to 204 °C | 18.8 ± 1.01 µM | 19.6 ± 1.05 µM | 28.3 ± 0.99 µM | 16.9 ± 3.71 µM | – | – | – | – | – | – | – | – | – | – | – | –
COc1cc(-c2cc(-c3ccc(OCCCCCCC(=O)NO)cc3)[nH]c(=O)c2C#N)cc(OC)c1OC [5c, 7-(4-(5-Cyano-6-Oxo-4-(3,4,5-Trimethoxyphenyl)-1,6-dihydropyridin-2-yl)phenoxy)-N-Hydroxyheptanamide] | 170 to 176 °C | 8.58 ± 0.46 µM | 12.1 ± 0.65 µM | 27.6 ± 1.49 µM | 9.47 ± 0.51 µM | – | – | – | – | – | – | – | – | – | – | – | –
CN[C@@H]1C[C@H]2O[C@@](C)([C@@H]1OC)n1c3ccccc3c3c4c(c5c6ccccc6n2c5c31)C(=O)NC4 [Staurosporine, reference compound] | – | – | – | – | – | – | – | – | – | – | – | 445.9 ± 15.39 pg/mL | 445.9 pg/mL | 1.343 ± 0.026 ng/mL | 1.343 ng/mL | 362.2 ± 9.61 pg/mL | 362.2 pg/mL

More lines, main results first:

melting point | IC50 [1] | IC50 [2] | IC50 [3] | IC50 [4] | IC50 [5] | IC50 [6] | IC50 [7] | IC50 [8] | IC50 [9] | IC50 [10] | SMILES | Caspase-3 Conc [11] | Caspase-3 Conc ([11]; listed as staurosporine) | Caspase-8 Conc [12] | Caspase-8 Conc ([12]; listed as staurosporine) | Bax Conc [13] | Bax Conc ([13]; listed as staurosporine)
102 to 105 °C | 44.4 ± 2.39 µM | 59.9 ± 3.23 µM | 88.4 ± 4.76 µM | 40.1 ± 2.16 µM | – | – | – | – | – | – | COc1cc(/C=C/C(=O)c2ccc(OCCCCC(=O)O)cc2)cc(OC)c1OC [2a, (E)-5-(4-(3-(3,4,5-Trimethoxyphenyl)Acryloyl)Phenoxy)Pentanoic Acid] | – | – | – | – | – | –
138 to 140 °C | 33.7 ± 1.82 µM | 39.4 ± 2.12 µM | 30.4 ± 1.64 µM | 23.7 ± 1.28 µM | – | – | – | – | – | – | COc1cc(/C=C/C(=O)c2ccc(OCCCCCC(=O)O)cc2)cc(OC)c1OC [2b, (E)-6-(4-(3-(3,4,5-Trimethoxyphenyl)Acryloyl)Phenoxy)Hexanoic Acid] | – | – | – | – | – | –
112 to 115 °C | 22.7 ± 1.22 µM | 14.8 ± 0.8 µM | 17.1 ± 0.92 µM | 16.5 ± 0.89 µM | – | – | – | – | – | – | COc1cc(/C=C/C(=O)c2ccc(OCCCCCCC(=O)O)cc2)cc(OC)c1OC [2c, (E)-7-(4-(3-(3,4,5-Trimethoxyphenyl)Acryloyl)Phenoxy)Heptanoic Acid] | – | – | – | – | – | –
220 to 224 °C | 2.07 ± 0.11 µM | 1.97 ± 0.11 µM | 3.62 ± 0.2 µM | 3.21 ± 0.17 µM | 0.111 ± 0.002 µM | 0.121 µM | 0.119 µM | 6.69 µM | 0.086 µM | 6.35 µM | COc1cc(/C=C/C(=O)c2ccc(OCCCCC(=O)NO)cc2)cc(OC)c1OC [4a, (E)-N-Hydroxy-5-(4-(3-(3,4,5-Trimethoxyphenyl)Acryloyl)Phenoxy) Pentanamide] | – | – | – | – | – | –
122 to 128 °C | 1.93 ± 0.14 µM | 1.18 ± 0.06 µM | 2.54 ± 0.14 µM | 1.59 ± 0.09 µM | 0.091 ± 0.001 µM | 0.07 µM | 0.277 µM | 8.72 µM | 0.113 µM | 5.02 µM | COc1cc(/C=C/C(=O)c2ccc(OCCCCCCC(=O)NO)cc2)cc(OC)c1OC [4c, (E)-N-Hydroxy-7-(4-(3-(3,4,5-Trimethoxyphenyl)Acryloyl)Phenoxy)Heptanamide] | – | – | – | – | – | –
